Measured values taken from patent publication US8609847B2, “Dihydroquinolinone derivatives” (Taisho Pharmaceutical Co., Ltd, priority 2009, dated 2013).

What was measured:
human H3 receptor [1] = target: T1, human H3 receptor (Homo sapiens, UniProt Q9Y5N1); assay: H3 Receptor Binding Test; conditions: 50% inhibition of R(−)-α-methyl[3H]histamine (1 nM) binding; membrane preparation of human H3 receptor-expressing CHO-K1 cells
T1 construct: purchased Perkin Elmer ES-392-M400UA; host or cells: CHO-K1 cells (recombinant expression), membrane preparation
Method: A membrane preparation of human H3 receptor-expressing CHO-K1 cells (Perkin Elmer, ES-392-M400UA, 15 μg protein/200 μl), R(−)-α-methyl[^3H]histamine (Amersham, TRK-1017, specific activity: 1.74 TBq/mmol, 1 nM) and a test drug were reacted at room temperature for 1 hour. After completion of the reaction, the reaction mixture was subjected to suction filtration through a 0.3% polyethyleneimine-treated glass filter (GF/C). The glass filter was washed five times with 50 mM Tris-HCl washing solution (pH 7.4) containing 5 mM EDTA. After washing, the glass filter was dried and a scintillator was added thereto, followed by measurement of radioactivity on the filter using a liquid scintillation counter.
Binding of R(−)-α-methyl[^3H]histamine in the presence of 10 μM R(−)-α-methylhistamine was defined as non-specific binding, and the difference between total binding and non-specific binding of R(−)-α-methyl[^3H]histamine was defined as specific binding of R(−)-α-methyl[^3H]histamine. A fixed concentration (1 nM) of R(−)-α-methyl[^3H]histamine was reacted under the above conditions with each test drug at various concentrations to obtain an inhibition curve. The inhibition curve was used to determine the concentration (IC50) of each test drug required for 50% inhibition of R(−)-α-methyl[^3H]histamine binding.

human H3 receptor [2] = target: T1, human H3 receptor; assay: [35S]GTP-γ-S Binding Test; type: biochemical; conditions: 50% inhibition of [35S]GTP-γ-S (0.2 nM) binding in presence of 10 nM R(−)-α-methylhistamine; human H3 receptor membrane preparation
Method: The same human H3 receptor membrane preparation as used in Test Example 1 (7.5 μg protein/200 μl), 3 μM GDP, 10 nM R(−)-α-methylhistamine and a test compound were reacted at 30° C. for 20 minutes. After completion of the reaction, [^35S]GTP-γ-S (0.2 nM) was added and reacted for an additional 30 minutes. After completion of the reaction, the reaction mixture was subjected to suction filtration through a glass filter (GF/C). The glass filter was washed three times with 20 mM HEPES washing solution (pH 7.4) containing 100 mM sodium chloride and 3 mM magnesium chloride. After washing, the glass filter was dried and a scintillator was added thereto, followed by measurement of radioactivity on the filter using a liquid scintillation counter. Binding of [^35S]GTP-γ-S in the absence of R(−)-α-methylhistamine was defined as non-specific binding, and the difference between total binding in the presence of R(−)-α-methylhistamine and non-specific binding was defined as specific binding of [^35S]GTP-γ-S. Fixed concentrations of [^35S]GTP-γ-S (0.2 nM) and R(−)-α-methylhistamine (10 nM) were reacted under the above conditions with each test drug at various concentrations to obtain an inhibition curve. The inhibition curve was used to determine the concentration (IC50) of each test drug required for 50% inhibition of [^35S]GTP-γ-S binding.

T1 sequence (Q9Y5N1 whole entry): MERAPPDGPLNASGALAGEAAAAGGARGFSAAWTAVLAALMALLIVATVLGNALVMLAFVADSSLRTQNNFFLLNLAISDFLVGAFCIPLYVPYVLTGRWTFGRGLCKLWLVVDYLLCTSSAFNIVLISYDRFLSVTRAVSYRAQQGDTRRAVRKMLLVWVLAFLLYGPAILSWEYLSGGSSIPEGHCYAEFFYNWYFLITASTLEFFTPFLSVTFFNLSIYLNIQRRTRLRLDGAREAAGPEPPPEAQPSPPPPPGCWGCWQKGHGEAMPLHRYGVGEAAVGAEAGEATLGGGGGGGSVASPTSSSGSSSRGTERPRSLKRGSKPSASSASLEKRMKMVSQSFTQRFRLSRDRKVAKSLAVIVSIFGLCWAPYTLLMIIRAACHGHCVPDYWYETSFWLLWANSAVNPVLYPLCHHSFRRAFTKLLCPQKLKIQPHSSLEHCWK

IC50 (human H3 receptor [1]) | IC50 (human H3 receptor [2]) | SMILES
2.9 nM |  | Cc1ccc(N2C(=O)CCc3cc(OCCCN4CCC[C@H]4C)ccc32)cn1 [Compound No. 47, 1-(6-methylpyridin-3-yl)-6-{3-[(2R)-2-methylpyrrolidin-1-yl]propoxy}-3,4-dihydroquinolin-2(1H)-one]
2 nM |  | COc1ccc(N2C(=O)CCc3cc(OCCCN4CCC[C@H]4C)ccc32)c(OC)c1 [Compound No. 25, 1-(2,4-dimethoxyphenyl)-6-{3-[(2R)-2-methylpyrrolidin-1-yl]propoxy}-3,4-dihydroquinolin-2(1H)-one]
12 nM |  | Cc1cc(OCCCN2CCC[C@H]2C)cc2c1N(c1ccc(F)cc1)C(=O)CC2 [Compound No. 86, 1-(4-fluorophenyl)-8-methyl-6-{3-[(2R)-2-methylpyrrolidin-1-yl]propoxy}-3,4-dihydroquinolin-2(1H)-one]
3.6 nM |  | CC(=O)c1ccc(N2C(=O)CCc3cc(OCCCN4CCC[C@H]4C)ccc32)cc1 [Compound No. 15, 1-(4-acetylphenyl)-6-{3-[(2R)-2-methylpyrrolidin-1-yl]propoxy}-3,4-dihydroquinolin-2(1H)-one]
22 nM |  | C[C@@H]1CCCN1CCCOc1ccc2c(c1)CCC(=O)N2c1ccc(C#N)cn1 [Compound No. 46, 6-[6-{3-[(2R)-2-methylpyrrolidin-1-yl]propoxy}-2-oxo-3,4-dihydroquinolin-1(2H)-yl]pyridine-3-carbonitrile]
1 nM |  | C[C@@H]1CCCN1CCCOc1ccc2c(c1)CCC(=O)N2c1ccc(F)cc1F [Compound No. 29, 1-(2,4-difluorophenyl)-6-{3-[(2R)-2-methylpyrrolidin-1-yl]propoxy}-3,4-dihydroquinolin-2(1H)-one]
4 nM |  | C[C@@H]1CCCN1CCCOc1ccc2c(c1)CCC(=O)N2c1ccc(Cl)cn1 [Compound No. 49, 1-(5-chloropyridin-2-yl)-6-{3-[(2R)-2-methylpyrrolidin-1-yl]propoxy}-3,4-dihydroquinolin-2(1H)-one]
2.1 nM |  | C[C@@H]1CCCN1CCCOc1ccc2c(c1)CCC(=O)N2c1cc(F)cc(F)c1 [Compound No. 27, 1-(3,5-difluorophenyl)-6-{3-[(2R)-2-methylpyrrolidin-1-yl]propoxy}-3,4-dihydroquinolin-2(1H)-one]
2.7 nM |  | Cc1ccc(N2C(=O)CCc3cc(OCCCN4CCC[C@H]4C)ccc32)cc1C#N [Compound No. 32, 2-methyl-5-[6-{3-[(2R)-2-methylpyrrolidin-1-yl]propoxy}-2-oxo-3,4-dihydroquinolin-1(2H)-yl]benzonitrile]
13 nM |  | C[C@@H]1CCCN1CCCOc1ccc2c(c1)CCC(=O)N2c1ncccc1C#N [Compound No. 51, 2-[6-{3-[(2R)-2-methylpyrrolidin-1-yl]propoxy}-2-oxo-3,4-dihydroquinolin-1(2H)-yl]pyridine-3-carbonitrile]
3.1 nM |  | C[C@@H]1CCCN1CCCOc1ccc2c(c1)CCC(=O)N2c1cnc2ccccc2c1 [Compound No. 37, 6-{3-[(2R)-2-methylpyrrolidin-1-yl]propoxy}-3,4-dihydro-2H-1,3′-biquinolin-2-one]
8.7 nM |  | COc1ccc(N2C(=O)CCc3cc(OCCCN4CCC[C@H]4C)ccc32)cn1 [Compound No. 48, 1-(6-methoxypyridin-3-yl)-6-{3-[(2R)-2-methylpyrrolidin-1-yl]propoxy}-3,4-dihydroquinolin-2(1H)-one]
2.2 nM |  | C[C@@H]1CCCN1CCCOc1ccc2c(c1)CCC(=O)N2c1cccnc1 [Compound No. 35, 6-{3-[(2R)-2-methylpyrrolidin-1-yl]propoxy}-1-(pyridin-3-yl)-3,4-dihydroquinolin-2(1H)-one]
1.6 nM |  | COc1cccc(N2C(=O)CCc3cc(OCCCN4CCC[C@H]4C)ccc32)c1 [Compound No. 22, 1-(3-methoxyphenyl)-6-{3-[(2R)-2-methylpyrrolidin-1-yl]propoxy}-3,4-dihydroquinolin-2(1H)-one]
5.7 nM |  | C[C@@H]1CCCN1CCCOc1ccc2c(c1)CCC(=O)N2c1cncc(C#N)c1 [Compound No. 50, 5-[6-{3-[(2R)-2-methylpyrrolidin-1-yl]propoxy}-2-oxo-3,4-dihydroquinolin-1(2H)-yl]pyridine-3-carbonitrile]
0.79 nM |  | C[C@@H]1CCCN1CCCOc1ccc2c(c1)CCC(=O)N2c1ccccc1 [Compound No. 2, 6-{3-[(2R)-2-methylpyrrolidin-1-yl]propoxy}-1-phenyl-3,4-dihydroquinolin-2(1H)-one]
1.6 nM |  | C[C@@H]1CCCN1CCCOc1ccc2c(c1)CCC(=O)N2c1ccc(CO)cc1 [Compound No. 10, 1-[4-(hydroxymethyl)phenyl]-6-{3-[(2R)-2-methylpyrrolidin-1-yl]propoxy}-3,4-dihydroquinolin-2(1H)-one]

The next lines start with the compound.

SMILES | IC50 (human H3 receptor [1]) | IC50 (human H3 receptor [2])
C[C@@H]1CCCN1CCCOc1ccc2c(c1)CCC(=O)N2c1ccc(CN(C)C)cc1 [Compound No. 12, 1-{4-[(dimethylamino)methyl]phenyl}-6-{3-[(2R)-2-methylpyrrolidin-1-yl]propoxy}-3,4-dihydroquinolin-2(1H)-one] | 0.68 nM | 0.21 nM
O=C1CCc2cc(OC3CCN(C4CCC4)CC3)ccc2N1c1cncc(F)c1 [Compound No. 71, 6-[(1-cyclobutylpiperidin-4-yl)oxy]-1-(5-fluoropyridin-3-yl)-3,4-dihydroquinolin-2(1H)-one] | 1.4 nM | 0.26 nM
COc1ccc(N2C(=O)CCc3cc(OC4CCN(C5CCC5)CC4)ccc32)cn1 [Compound No. 67, 6-[(1-cyclobutylpiperidin-4-yl)oxy]-1-(6-methoxypyridin-3-yl)-3,4-dihydroquinolin-2(1H)-one] | 2.7 nM | 
C[C@@H]1CCCN1CCCOc1ccc2c(c1)CCC(=O)N2c1cccc(C(=O)N(C)C)c1 [Compound No. 21, N,N-dimethyl-3-[6-{3-[(2R)-2-methylpyrrolidin-1-yl]propoxy}-2-oxo-3,4-dihydroquinolin-1(2H)-yl]benzamide] | 26 nM | 
C[C@@H]1CCCN1CCCOc1ccc2c(c1)CCC(=O)N2c1ccc(C(=O)N2CCCC2)cc1 [Compound No. 14, 6-{3-[(2R)-2-methylpyrrolidin-1-yl]propoxy}-1-[4-(pyrrolidin-1-ylcarbonyl)phenyl]-3,4-dihydroquinolin-2(1H)-one] | 5.7 nM | 
C[C@@H]1CCCN1CCCOc1ccc2c(c1)CCC(=O)N2c1cnc2cccnc2c1 [Compound No. 39, 6-{3-[(2R)-2-methylpyrrolidin-1-yl]propoxy}-1-(1,5-naphthylizin-3-yl)-3,4-dihydroquinolin-2(1H)-one] | 4.4 nM | 
N#Cc1cccc(N2C(=O)CCc3cc(OC4CCN(C5CCC5)CC4)ccc32)c1 [Compound No. 74, 3-{6-[(1-cyclobutylpiperidin-4-yl)oxy]-2-oxo-3,4-dihydroquinolin-1(2H)-yl}benzonitrile] | 1.3 nM | 
CC(C)(C)N1CCC(Oc2ccc3c(c2)CCC(=O)N3c2ccccc2)CC1 [Compound No. 61, 6-[(1-tert-butylpiperidin-4-yl)oxy]-1-phenyl-3,4-dihydroquinolin-2(1H)-one] | 2.4 nM | 
CC(C)(C)N1CCC(Oc2ccc3c(c2)CCC(=O)N3c2cncc(F)c2)CC1 [Compound No. 64, 6-[(1-tert-butylpiperidin-4-yl)oxy]-1-(5-fluoropyridin-3-yl)-3,4-dihydroquinolin-2(1H)-one] | 5.3 nM | 
O=C1CCc2cc(OCCCN3CCCC3)ccc2N1c1ccc(F)c(F)c1 [Compound No. 81, 1-(3,4-difluorophenyl)-6-[3-(pyrrolidin-1-yl)propoxy]-3,4-dihydroquinolin-2(1H)-one] | 18 nM | 
O=C1CCc2cc(OCCCN3CCCC3)ccc2N1c1cccc(F)c1 [Compound No. 79, 1-(3-fluorophenyl)-6-[3-(pyrrolidin-1-yl)propoxy]-3,4-dihydroquinolin-2(1H)-one] | 17 nM | 
O=C1CCc2cc(OC3CCN(CC4CC4)CC3)ccc2N1c1ccc(F)cc1 [Compound No. 76, 6-{[1-(cyclopropylmethyl)piperidin-4-yl]oxy}-1-(4-fluorophenyl)-3,4-dihydroquinolin-2(1H)-one] | 9.8 nM | 
CC(C)N1CCC(Oc2ccc3c(c2)CCC(=O)N3c2ccc(F)cc2)CC1 [Compound No. 75, 1-(4-fluorophenyl)-6-{[1-(propan-2-yl)piperidin-4-yl]oxy}-3,4-dihydroquinolin-2(1H)-one] | 1.4 nM | 
